Measurements as given in patent US10335392B2, “Cyclic compounds useful as modulators of TNF α” (BRISTOL-MYERS SQUIBB COMPANY, priority 2015, dated 2019).

Target: TNFα (Homo sapiens (Human), UniProt P01375)
Experiment: TNF induced HEK-Blue assay
Assay type: cell-based
Details: TNFα 0.5 ng/ml; HEK-Blue-CD40L cells, NF-kB-driven secreted alkaline phosphatase reporter; 18 h
Protocol: TNF or CD40L-Induced HEK-Blue Assay
Test compounds serially diluted in DMSO were plated in an assay plate (LABCYTE, Cat. # LP-0200) at final concentrations ranging from 0.004 μM to 25 μM. TNFα (final concentration 0.5 ng/ml) or CD40L (final concentration 30 ng/ml) in assay buffer [DMEM, 4.5 g/l glucose (Gibco, Cat. 21063-029), 10% FBS (Sigma, F4135), 1% Penicillin-Streptomycin (Gibco, Cat. 15140-122), 1% Anti-Anti (Gibco, Cat. 15240-112) and 2 mM L-glutamine (Gibco, Cat. 25030-081)] was then added to the assay plate. After a 30 minute pre-incubation at 37° C. and 5% CO2, HEK-Blue™-CD40L cells (INVIVOGEN, Cat. Code hkb-cd40) containing a NF-kB-driven secreted alkaline phosphatase reporter gene were seeded into the assay plate at a density of 20,000 cells per well. This plate was then incubated for 18 h at 37° C. and 5% CO2. Secreted alkaline phosphatase expression was measured using QUANTI-Blue™ (INVIVOGEN, Cat. Code rep-qb1) according to manufacturer's specifications and the assay plate was read on a PerkinElmer Envision at 620 nm.
Inhibition data for the test compound over a range of concentrations was plotted as percentage inhibition of the test compound (100%=maximum inhibition). IC50 values were determined after correcting for background [(sample read−mean of low control)/(mean of high control−mean of low control)] where by the low control is DMSO without stimulation and high control is DMSO with stimulation. The IC50 is defined as the concentration of test compound which produces 50% inhibition and was quantified using the 4 parameter logistic equation to fit the data.

Chain of TNFα (P01375 77-233): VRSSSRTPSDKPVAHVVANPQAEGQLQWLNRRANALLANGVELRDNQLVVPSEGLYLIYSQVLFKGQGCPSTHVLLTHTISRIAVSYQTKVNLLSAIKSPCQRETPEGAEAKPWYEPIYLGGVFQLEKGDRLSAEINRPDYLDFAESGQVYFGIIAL

| IC50 | Compound |
| --- | --- |
| < 1 µM | O=C(O)CN1CCN(c2ncc(-c3cc4c(cc3F)nc3n4[C@@H](c4ccccc4OC(F)F)[C@@H]4C[C@H]34)cn2)CC1 [Example 33, 2-(4-(5-((1aS,8R,8aR)-8-(2-(difluoromethoxy)phenyl)-4-fluoro-1,1a,8,8a-tetrahydrobenzo[d]cyclopropa[3,4]pyrrolo[1,2-a]imidazol-5-yl)pyrimidin-2-yl)piperazin-1-yl)acetic acid] |
| 1 to 10 µM | CC(C)(O)c1ncc(-c2cc3c(cc2F)nc2n3[C@@H](c3ccccc3OCc3ccncc3)[C@@H]3C[C@H]23)cn1 [Example 34, 2-(5-((1aS,8R,8aR)-4-fluoro-8-(2-(pyridin-4-ylmethoxy)phenyl)-1,1a,8,8a-tetrahydrobenzo[d]cyclopropa[3,4]pyrrolo[1,2-a]imidazol-5-yl)pyrimidin-2-yl)propan-2-ol] |
| 10 to 25 µM | CC(C)(O)c1ncc(-c2cc3c(cc2F)nc2n3[C@H](c3ccccc3OCc3ccncc3)[C@@H]3C[C@H]23)cn1 [Example 35, 2-(5-((1aS,8S,8aR)-4-fluoro-8-(2-(pyridin-4-ylmethoxy)phenyl)-1,1a,8,8a-tetrahydrobenzo[d]cyclopropa[3,4]pyrrolo[1,2-a]imidazol-5-yl)pyrimidin-2-yl)propan-2-ol] |
